Data as given in US20060153773A1, “Contrast medium for mri” (priority 2003, published 2006).
One block for each compound: values may come before it.

How the values were obtained:
[1] = system: injured left common carotid artery; assay: In vivo MRI of common carotid arteries in balloon-injured living rat; conditions: for MRI signal in the injured left common carotid artery (image): 2 ml of 24 mM (about 160 μM/kg) via left femoral vein, T1 weighted spin echo, FIG. 6; for MRI signal intensity of injured common carotid artery versus normal common carotid artery: 2 ml of 24 mM via left femoral vein, time course, own agent stated at ten minutes after administration, FIG. 7
Description: This example is to evaluate the imaging capability of the contrast agent of the present invention by means of an in vivo experiment using a living rat. A rat (weighing about 300 g) was anesthetized with pentobarbital, and inserted with a balloon-tip catheter through the left femoral artery [FIG. 5 (a), 1]. The left common carotid artery was scraped by the balloon to injure the endothelia thereof. Then the rat was injected, through the left femoral vein [FIG. 5 (a), 2], with 2 ml (about 160 μM/kg) of physiological aqueous solution of the contrast agent as prepared in Example 1 (24 mM). At predetermined lapses of time, images were taken by MRI (the T1 weighted spin echo method) around the right and left common carotid artery [the cross section along the line N-N in FIG. 5 (a)]. The rat was supplementally anesthetized in order to keep it motionless during the imaging operation. For comparison, an evaluation experiment was also carried out in the same manner with a conventional agent, DTPA-Gd. […] In FIG. 6, by “injured” is designated the left common carotid artery injured by the balloon, corresponding to 4 in FIG. 5 (b), while by “intact” is designated the right common carotid artery, which is normal and corresponds to 5 in FIG. 5 (b). The numeral 3 in FIG. 5 (b) denotes the bronchium.

[2] = Gd content remaining in various organs of the rat (ICP); assay type: in vivo
Description: This was also verified by measuring Gd (gadolinium) content remaining in various organs of the rat, in which the measurement was carried out as follows: The rat was administered with 1 ml heparin and a blood sample was taken from the rat. Then physiological saline solution was circulated throughout the rat, and the various organs were extirpated from the rat. To each organ and the blood sample was added 3 ml nitric acid, followed by standing for one hour. The resultant was added with 25% hydrogen peroxide aqueous solution and then allowed to stand overnight at room temperature. The resultant solution was warmed and added with 6 ml water. The insolubles were removed by filtration, and the filtrate was analyzed by ICP.

[3] = system: exfoliated endothelial site of aortic vascular section; assay: In vitro MRI imaging capability on aortic vascular section extirpated from a pig; conditions: pig aortic section immersed in 10 mM aqueous solution for ten seconds
Description: For the contrast agent as synthesized (prepared) in Example 1, evaluation of in vitro imaging capability by MRI was carried out with an aortic vascular section extirpated from a pig, as a specimen.
The aortic vascular section extirpated from a pig was spread in a rectangular shape measuring about 2 cm×3 cm to prepare a vascular section sample. The endothelial surface of the left half of the sample was exfoliated with a scalpel. The sample was then immersed in a 10 mM aqueous solution of the contrast agent for ten seconds. Following thorough washing with physiological saline solution, the sample was subjected to the evaluation by MRI as well as by visual observation.
FIG. 2 (A) is a picture taken with a digital camera, which corresponds to the visual observation. […] FIG. 2 (B) is an MRI image (by the T1 weighted spin echo method).

[4] = system: exfoliated endothelial site (balloon-injured left carotid artery); assay: Ex vivo MRI of extirpated carotid arteries after injection into balloon-injured living rat; assay type: in vivo; conditions: 2 ml of 24 mM via right jugular vein, FIG. 3
Description: The contrast agent of the present invention was evaluated for imaging capability by means of an ex vivo experiment using a living rat. A balloon-tip catheter was passed through the left femoral artery of the rat to injure the carotid artery with the balloon. Then 2 ml of aqueous saline solution containing 24 mM of the contrast agent (EBDTPA-Gd prepared in Example 1) was injected to the rat through the right jugular vein. After a predetermined period of time (10, 30 or 120 minutes), the right carotid artery and the left carotid artery were extirpated, developed, washed with a physiological saline, and then subjected to evaluation by MRI. The MRI evaluation was carried out by imaging the extirpated carotid artery sections, under the condition of being added with one or two droplets of physiological saline solution, by the T1 weighted spin echo method. In FIG. 3, by “injured” is denoted the exfoliated endothelial site (the left carotid artery), which had been injured by the balloon, while “intact” denotes the normal endothelial site (the right carotid artery). The photographs of the developed vascular samples as presented in FIG. 3 reveal purple coloring with intensities corresponding to the MRI signal intensities described later. The pictures (A) as presented in FIG. 3 below the photographs of the developed vascular samples illustrate the states of the samples prepared for the study by MRI. As illustrated, each carotid artery section was developed on a glass plate and covered with one or two droplets of physiological saline solution, for the MRI study.

Compound: O=C([O-])CN(CCN(CC(=O)[O-])CC(=O)O)CCN(CC(=O)[O-])CC(=O)O.[Gd+3] [DTPA-Gd, reference compound]
MRI signal in the injured left common carotid artery (image) [1]: no such signal was observed | MRI signal intensity of injured common carotid artery versus normal common carotid artery [1]: no substantial difference

colour of urine (excretion through the kidney) ([2]; rat, ten minutes after the administration): colored purple
Compound: Cc1cc(-c2ccc(NC(=O)CN(CCN(CCN(CC(=O)O)CC(=O)O)CC(=O)O)CC(=O)O)c(C)c2)ccc1N=Nc1ccc2c(S(=O)(=O)O)cc(S(=O)(=O)O)c(N)c2c1O [contrast agent of the present invention]
MRI signal in the injured left common carotid artery (image) [1]: clear MRI signal | MRI signal intensity of injured common carotid artery versus normal common carotid artery [1]: higher than that for the normal right common carotid artery | Gd content remaining in various organs ([2]; rat organs and blood, ICP, FIG. 4): substantially no remaining Gd in organs other than the blood and kidney | visual observation of the exfoliated endothelial site ([3]; FIG. 2(A)): colored blue | MRI signal intensity at the exfoliated endothelial site relative to the normal endothelial site ([3]; T1 weighted spin echo, FIG. 2(C)): about ten | difference in MRI signal intensity between exfoliated site and normal site ([4]; after 120 minutes): no substantial difference | difference in MRI signal intensity between exfoliated endothelial site and normal site ([4]; after thirty minutes): the difference in the signal intensity therebetween shortened | MRI signal intensity of the injured site relative to the normal site ([4]; ten minutes from the injection): 1.74 times
